The values below come from article PMC8001472, “Novel Selective IDO1 Inhibitors with Isoxazolo[5,4-d]pyrimidin-4(5H)-one Scaffold” (Pharmaceuticals, 2021).

The target in data set [1] is T1, hIDO2 (Homo sapiens, UniProt Q6ZQW0).
T1 construct: purchased Vinci-Biochem
T1 sequence (Q6ZQW0 1-407): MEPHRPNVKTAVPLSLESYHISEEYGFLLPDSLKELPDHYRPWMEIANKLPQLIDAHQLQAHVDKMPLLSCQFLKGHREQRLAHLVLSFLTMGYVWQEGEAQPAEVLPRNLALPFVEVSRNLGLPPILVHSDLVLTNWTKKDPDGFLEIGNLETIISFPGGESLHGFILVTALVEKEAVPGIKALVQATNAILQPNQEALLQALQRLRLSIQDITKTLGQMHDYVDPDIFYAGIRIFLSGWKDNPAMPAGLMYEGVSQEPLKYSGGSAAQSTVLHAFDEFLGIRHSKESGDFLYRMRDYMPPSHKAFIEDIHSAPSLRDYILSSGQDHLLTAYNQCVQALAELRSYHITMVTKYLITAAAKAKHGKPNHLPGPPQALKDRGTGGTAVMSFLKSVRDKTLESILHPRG
The data set is described as follows: hIDO2 inhibitory potency evaluation (fluorescence assay). The class given is biochemical. Conditions: for inhibition at 100 µM: 100 µM compound, n.a. = not active, read-out: IDO2 % of Inhibition @ 100 µM. How it is done: (§1) Additionally, to determine IDO1 selectivity, all final compounds were assayed for their inhibitory potencies towards hIDO2 and hTDO. For this purpose, two new protocols were developed based on the published fluorescence assay for hIDO1 [25]. Sodium ascorbate, methylene blue, and bovine catalase were used in the same concentrations as for hIDO1. 50 mM phosphate buffers with pH values of 7.5 and 7.0 were used for hIDO2 and hTDO, respectively, as has been already mentioned before. First, the activities of hIDO2 and hTDO were determined at four different concentrations. […] Additionally, the effect of DMSO concentration on enzyme activity was investigated. […] The optimal hIDO2 and hTDO assay concentrations of the substrate L-Trp were determined to be 4 mM and 500 μM, respectively.
Activity of the compounds on hIDO2 was determined according to the previously reported fluorescence protocol for hIDO1 [25] and reported absorbance protocols for hIDO2 [30, 36] with several modifications. Recombinant hIDO2 was purchased from Vinci-Biochem (Vinci-Biochem, Srl, Vinci, Italy), bovine catalase was purchased from Sigma-Aldrich (Sigma-Aldrich, St. Louis, MO, USA). Prior to the measurement of activity for compounds, the enzyme activity was determined and optimal assay enzyme concentration was selected. The amounts of reagents needed to perform the assay were optimized. Briefly, the reagents needed were dissolved in 50 mM potassium phosphate buffer (pH 7.5, 0.01%, v/v Tween 20), the reaction was performed in black 384-well microplates. After the addition of 1 μL of 100 mM sodium ascorbate neutralized with an equimolar amount of 1M NaOH, 1 μL of 100 μM methylene blue, 1 μL of 1 mg/mL bovine catalase, 0.5 μL of DMSO (negative control) or solution of a compound in DMSO, 5 μL of […] hIDO2 and 1.5 μL of 26.7 mM L-Trp were added and the microplate was incubated for 60 min at 37 °C. The reaction was quenched with the addition of 10 μL of 400 mM piperidine solution in MilliQ water and the formation of the examined fluorophore began following incubation at 65 °C for 20 min. The production of NFK-derived fluorophore (λEX = 400 nm, λEM = 500 nm) was measured using a microplate reader (Synergy H4; BioTek Instruments, Inc., Winooski, VT, USA) after 60 min post-incubation at room temperature. In the preliminary testing compounds were tested at 100 μM with activities determined as residual activities—RA, which were calculated to% of inhibition, presented in Table 1 and Table 2. (% of inhibition = 100% − RA). All determinations were carried out in duplicates.

For data set [2], the target named is T2, hTDO (Homo sapiens, UniProt P48775).
T2 construct: purchased Vinci-Biochem
In words: hTDO inhibitory potency evaluation (fluorescence assay). It is filed as biochemical. Conditions: for inhibition at 100 µM: 100 µM compound, n.a. = not active, read-out: TDO % of Inhibition @ 100 µM. The procedure: as §1
The activity of the compounds on hTDO was determined according to the previously reported fluorescence protocol for hIDO1 [25] and reported absorbance protocols for hTDO [30] with several modifications. Recombinant hTDO was purchased from Vinci-Biochem (Vinci-Biochem, Vinci, Italy), bovine catalase was purchased from Sigma-Aldrich (Sigma-Aldrich, St. Louis, MO, USA). Prior to the measurement of activity for compounds, the enzyme activity was determined, and optimal assay enzyme concentration was selected. The amounts of reagents needed to perform the assay were optimized. Briefly, the reagents needed were dissolved in 50 mM potassium phosphate buffer (pH 7.0, 0.01%, v/v Tween 20), the reaction was performed in black 384-well microplates. After the addition of 1 μL of 100 mM sodium ascorbate neutralized with equimolar amount of 1 M NaOH, 1 μL of 100 μM methylene blue, 1 μL of 1 mg/mL bovine catalase, 0.5 μL of DMSO (negative control) or solution of a compound, 5 μL of 300 nM hTDO and 1.5 μL of 3.3 mM L-Trp were added and the microplate was incubated for 60 min at 37 °C. The reaction was quenched with the addition of 10 μL of 400 mM piperidine solution in MilliQ water and the formation of the examined fluorophore began following incubation at 65 °C for 20 min. The production of NFK-derived fluorophore (λEX = 400 nm, λEM = 500 nm) was measured using a microplate reader (Synergy H4; BioTek Instruments, Inc., Winooski, VT, USA) after 60 min post-incubation at room temperature. In the preliminary testing compounds were tested at 100 μM with activities determined as residual activities—RA, which were calculated to% of inhibition, presented in Table 1 and Table 2 (% of inhibition = 100% − RA). All determinations were carried out in duplicates.

Data set [3] addresses IDO1 (Homo sapiens, UniProt P14902). In words: hIDO1 inhibitory potency evaluation (fluorescence assay, NFK-derived fluorophore). Conditions: for inhibition at 100 µM: 100 µM compound, n.a. = not active, read-out: IDO1 % of Inhibition @ 100 µM; for IC50: recombinant hIDO1, mean ± SD of at least two independent determinations, read-out: IDO1 IC50. It is filed as biochemical. Set-up: gene encoding human IDO1 residues 6-403 His-tagged at the N-terminus; His tag (N); made in house; host or cells: Escherichia coli NiCo21.

For data set [4], the system named is Hep G2 cell line. In words: Cytotoxicity, MTS cell proliferation assay. It is filed as cell-based. Conditions: Hep G2 cells, 10 μM, 24 h. The procedure: All active compounds were additionally evaluated on a cellular level, starting with the determination of cytotoxicity on Hep G2 cell line using the MTS assay (Figure 3), where inner salt of [3-(4,5-dimethylthiazol-2-yl)-5-(3-carboxymethoxyphenyl)-2-(4-sulfophenyl)-2H-tetrazolium is converted to formazan product, its quantity is directly proportional to the number of living cells. Since the majority of compounds were only partially soluble in a cell medium at concentrations above 100 μM, their effect on cell viability was measured at 50 μM, 10 μM, and 1 μM. […] Taken together, the results obtained from cellular tests reminded us of the necessity to consider the physicochemical properties of compounds even at the early stages of design.
Cytotoxicity of the compounds was determined on HepG2 cell line using the MTS cell proliferation assay (CellTiter 96 AQueous One Solution Cell Proliferation Assay, Promega, Madison, WI, USA). The cells were seeded in 96-well plates (3 × 10^4 cells/well) and maintained in Dulbecco’s Modified Eagle’s Medium, supplemented with 10% fetal bovine serum (both from Thermo Fisher Scientific, Waltham, MA, USA) and 100 µg/mL gentamicin (Sigma-Aldrich, St. Louis, MO, USA). Following overnight incubation in a humidified chamber at 37 °C and 5% CO2 cells were treated with the compounds of interest at final concentrations of 1 µM, 10 µM, 50 µM, 100 µM, 150 µM, and 200 µM. After 24h incubation under the same conditions, 100 µL of the medium from each well were collected and mixed with 10 µL of MTS solution. Following 3h incubation, the absorbance (λABS = 490 nm) was measured using a microplate reader (Synergy H4; BioTek Instruments, Inc., Winooski, VT, USA). The results are expressed as means of triplicates ± standard deviation of three independent experiments.

Chain of IDO1 (P14902 6-403): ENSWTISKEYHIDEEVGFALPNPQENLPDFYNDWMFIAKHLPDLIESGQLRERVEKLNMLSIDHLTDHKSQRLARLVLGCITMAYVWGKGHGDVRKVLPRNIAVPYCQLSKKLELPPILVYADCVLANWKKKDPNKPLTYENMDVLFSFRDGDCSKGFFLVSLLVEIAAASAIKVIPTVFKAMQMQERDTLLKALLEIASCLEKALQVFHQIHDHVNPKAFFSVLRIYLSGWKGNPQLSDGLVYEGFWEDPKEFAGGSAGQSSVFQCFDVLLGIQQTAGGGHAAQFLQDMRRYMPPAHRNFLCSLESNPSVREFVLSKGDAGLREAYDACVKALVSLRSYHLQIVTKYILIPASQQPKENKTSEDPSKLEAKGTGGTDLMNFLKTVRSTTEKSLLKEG
T2 sequence (P48775 whole entry): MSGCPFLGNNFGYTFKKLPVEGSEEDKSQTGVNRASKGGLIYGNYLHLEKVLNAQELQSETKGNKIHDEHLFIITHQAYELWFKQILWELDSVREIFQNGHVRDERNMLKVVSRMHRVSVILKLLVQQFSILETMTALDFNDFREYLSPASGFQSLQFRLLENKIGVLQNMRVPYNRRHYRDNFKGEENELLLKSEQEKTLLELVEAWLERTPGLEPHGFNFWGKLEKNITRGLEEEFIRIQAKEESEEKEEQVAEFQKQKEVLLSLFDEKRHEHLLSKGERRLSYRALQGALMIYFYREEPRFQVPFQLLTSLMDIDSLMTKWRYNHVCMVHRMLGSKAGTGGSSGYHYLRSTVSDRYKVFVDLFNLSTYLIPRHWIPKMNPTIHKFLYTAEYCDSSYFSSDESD

For the molecule `O=C(Cn1cnc2onc(-c3ccc(F)cc3)c2c1=O)Nc1cccc([N+](=O)[O-])c1` [Compound 24], the melting point was 232 to 235 °C. Besides, the inhibition at 100 µM in data set [1] turned out to be 39 ± 5%. In data set [2], the inhibition at 100 µM is 25 ± 8%. Moreover, the inhibition at 100 µM in data set [3] is 30 ± 2%.

For the molecule `O=C(Cn1cnc2onc(-c3ccc(F)cc3)c2c1=O)Nc1ccc([N+](=O)[O-])cc1` [Compound 25], the melting point lay within 200 to 203 °C. Also, the inhibition at 100 µM in data set [1] amounted to 28%. Moreover, the inhibition at 100 µM in data set [2] amounted to 24 ± 7%. Besides, the IC50 in data set [3] is 98 µM.

`N#Cc1ccc(NC(=O)Cn2cnc3onc(-c4ccc(F)cc4)c3c2=O)cc1` [Compound 27]: the melting point is above 250 °C. Further, the inhibition at 100 µM in data set [2] came out at 17 ± 2%. In data set [3], the “hIDO1 inhibition (in words)” value was “inactive” and the inhibition at 100 µM worked out at 11 ± 4%.

The molecule `O=C(Cn1cnc2onc(-c3ccc(F)cc3)c2c1=O)Nc1ccc(-c2ncco2)cc1` [Compound 29] came in with a melting point of 237 to 239 °C. Besides, the inhibition at 100 µM in data set [2] came to 29 ± 3%. Also, in data set [3], the IC50 amounted to 30 µM.

Consider `COC(=O)c1ccc(NC(=O)Cn2cnc3onc(-c4ccccc4)c3c2=O)cc1` [Compound 39], for which the melting point lay in the range of 200 to 202 °C. Also, the inhibition at 100 µM in data set [1] stood at 11 ± 7%. Further, in data set [4], the “effect on cell viability” value is listed as “significantly impacted cell viability”. For the same molecule, in data set [3], the “hIDO1 inhibition (in words)” value is reported as “low micromolar range” and the IC50 is 22 µM.

In the case of `O=C(Cn1cnc2onc(-c3ccc(F)c(F)c3)c2c1=O)Nc1ccc([N+](=O)[O-])cc1` [Compound 48], the inhibition at 100 µM in data set [2] was determined as 10 ± 6%. The IC50 in data set [3] was determined as 75 µM.

Regarding `O=C(Cn1cnc2onc(-c3ccc(F)c(Br)c3)c2c1=O)Nc1ccc([N+](=O)[O-])cc1` [Compound 49], the melting point was 226 to 228 °C. For the same molecule, the inhibition at 100 µM in data set [2] amounted to 10 ± 2%. In data set [4], the “effect on cell viability” value was “significantly impacted cell viability”. Also, the concentration for half-maximal inhibition (IC50) in data set [3] was 96 µM.

On to `NS(=O)(=O)NCCNc1nonc1C(=NO)Nc1ccc(F)c(Br)c1` [epacadostat, reference compound], for which the IC50 in data set [1] (positive control, assay validation, read-out: IDO2 IC50) was 0.58 µM; in data set [2] it was 9.62 µM.
